{
  "source": "patent US8350084B2",
  "about": "“Alpha-(N-sulfonamido)acetamide compound as an inhibitor of beta amyloid peptide production” (priority 2007, dated 2013)",
  "key": {"proximal duodenum": {"tested_on": "proximal duodenum", "test": "Rat duodenum histopathology (GI toxicity)", "assay_type": "in vivo", "settings": "100 mg/kg/day once daily for 4 days", "method": "(§1) Female Harlan Sprague-Dawley rats (˜200-250 g) were dosed daily by oral gavage with a dosing vehicle of 99% PEG-400, 1% Tween-80 at 4 mL/kg in the morning. […] Plasma was obtained after centrifugation. […] CSF samples were centrifuged to remove cells or debris prior to dilution at 1:2 in 4% BSA and frozen for subsequent analysis.\nFollowing euthanasia by CO2 asphyxiation, approximately 3 cm long sections of the proximal duodenum were removed from the abdomen, rinsed with ice cold Phosphate buffered saline and placed into 10% buffered formalin prior to sectioning. Tissue sections of the duodenum were embedded in liquid paraffin, mounted onto blocks, and cut into triplicate sagittal (cross-luminal) ring sections and stained using the Periodic acid Schiff's base method prior to microscopic evaluation. All animals survived until scheduled necropsy was performed."}, "[1]": {"tested_on": "γ-secretase inhibitor binding sites in the brain", "test": "Gamma-secretase site occupancy in rat brain", "assay_type": "in vivo", "settings": "single dose 1 mg/kg, by 24 hours", "method": "as §1\nBrain sections were cut coronally at a thickness of 20 μm on a cryostat and thaw-mounted onto Superfrost Plus slides. Sections were saved at the level of the rostral hippocampus, with 3 sections per slide at intervals of about 120 μm, and frozen at −20° C. until use. For occupancy studies, brain sections were warmed to room temperature, dried, incubated for 10 minutes in 50 mM HEPES buffer, pH 7.4, then transferred to the same buffer containing 1.5 nM [^3H]IN973 (Goldstein, M. E. et al., J. Pharmacol. Exp. Ther. (2007) 323:102-108) or [^3H] (R)-4-((N-(1-amino-4-methyl-1-oxopentan-2-yl)-4-chlorophenylsulfonamido)methyl)-N-(2-methoxyethyl)benzamide and incubated at room temperature for 10 minutes. To define nonspecific binding, adjacent sections were incubated in buffer containing [^3H]IN973 or [^3H] […] Optical densities (expressed as digital light units per square millimeter) over areas of interest were measured and expressed as a percent of vehicle control."}, "CYP3A4 mRNA": {"tested_on": "CYP3A4 mRNA", "settings": "human, 3 days, 20 μM", "quoted_text": "Fa2N-4 cells and MFE Support Media F were provided by XenoTech, LLC (Lenexa, Kans.).\nFa2N-4 cells were supplied on 12-well, collagen-coated plates at a seeding density of 0.67×10^6 cells per well. Upon the receipt of the cells, the media were changed and the cells maintained overnight in a humidified, CO2-supplied incubator. After this adaptation period, the cells were examined under a light microscope and a determination was made as to whether the cells were morphologically normal and suitable for use. During the treatment period, the cells were visually inspected on a daily basis; cellular morphology, confluency, and signs of toxicity due to the test article were documented as necessary. […] Fa2N-4 cells were exposed to the test articles for a total of 3 days. The culture medium was replaced daily with fresh medium containing the test articles. After a total of ˜72 hours of exposure, medium was aspirated and the cells washed once with warm phosphate buffered saline solution before adding the cell lysis buffer (Qiagen, Valencia, Calif.)."}, "brain Aβ40": {"tested_on": "brain Aβ40", "test": "Rat brain Abeta40 assay (252-TSD ELISA)", "settings": "for Terminal Brain Abeta 40 5 hr: 5 hr after fourth dose; for Terminal Brain Abeta 40 12 hr: 12 hr after third dose; for Terminal Brain Abeta 40 24 hr: 24 hr after third dose"}, "[2]": {"settings": "female, Sprague-Dawley, rat, in vivo", "quoted_text": "Animals were euthanized 12 or 24 hours after the third dose or 5 hours after the fourth dose."}, "mouse Notch1-ΔE": {"tested_on": "mouse Notch1-ΔE", "settings": "Notch IC50 / Aβ40 IC50, 95% CI=163-232", "quoted_text": "Since inhibition of Notch signaling causes undesired, mechanism-based side effects, a cellular assay for Notch1-ΔE signaling was used to counterscreen γ-secretase inhibitors.\nHela cells were maintained in DMEM (GibcoBRL) containing 10% FBS (GibcoBRL), Penicillin/Streptomycin (GibcoBRL) and 2 mM L-glutamine (GibcoBRL). Cells were transiently transfected using TransIT-HelaMONSTER (Mires) according to the manufacturer's directions. Hela cells (ATCC) were plated 16 hours before transfection at a density of 4×10^6 cells per T175 flask in Hela growth media (DMEM (high glucose with HEPES) with glutamine, penicillin, streptomycin and 10% fetal bovine serum). […] Cells were plated into 96 well black Clearview plates (Packard) at a volume of 200 μL/well (1×10^4 cells) and incubated at 37° C. for 1.5 hours to allow cells to adhere to the plates. Test compounds were initially diluted in a 96 well polypropylene plate in 100% DMSO. […] Diluted compound solutions (10 μL) were added to the cell plate yielding a final 0.1% DMSO concentration. Cell plates containing compound were incubated overnight at 37° C. […] The plate was incubated at room temperature for 10 minutes before black backing was attached to the bottom of the plate and the signal was read on a TopCount (Packard). […]"}, "[3]": {"target": "T1, human pregnane-X receptor (Homo sapiens, UniProt O75469)", "T1 construct": "expressed in transfected cells; host or cells: HepG2 cells (ATCC), transient transfection with Lipofectamine 2000", "T1 sequence (O75469 1-434)": "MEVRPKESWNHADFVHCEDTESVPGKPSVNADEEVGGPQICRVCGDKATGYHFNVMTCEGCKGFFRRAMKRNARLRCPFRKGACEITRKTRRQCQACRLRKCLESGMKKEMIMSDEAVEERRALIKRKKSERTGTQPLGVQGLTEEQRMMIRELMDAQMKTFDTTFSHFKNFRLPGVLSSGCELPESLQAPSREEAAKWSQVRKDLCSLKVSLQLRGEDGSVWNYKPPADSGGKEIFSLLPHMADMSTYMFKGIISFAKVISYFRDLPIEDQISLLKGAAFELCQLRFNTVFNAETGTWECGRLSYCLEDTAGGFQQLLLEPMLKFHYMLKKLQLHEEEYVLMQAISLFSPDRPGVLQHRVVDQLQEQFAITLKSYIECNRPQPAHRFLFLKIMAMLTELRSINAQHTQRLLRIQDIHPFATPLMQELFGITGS", "test": "PXR transactivation assay", "assay_type": "cell-based", "settings": "hPXR transactivation, transfected HepG2 cells", "text": "Pregnane X receptor (PXR) is a nuclear hormone receptor principally responsible for the induction of cytochrome P450 (CYP) 3A4, which plays a major role in metabolizing many clinically prescribed drugs. It is well known that the induction of CYP3A4 can cause either drug-drug interaction by increasing the metabolic clearance of co-administered CYP3A4 substrates (Bertilsson, G. et al., Proc. Nat. Acad. Sci. USA (1998) 95: 12208-12213; Lehmann, J. M. et al., J. Clin. Invest. (1998) 102: 1016-1023) or can cause loss of drug exposure due to autoinduction. Characterizing the induction potential of discovery or development drug candidates has become an important screen throughout the pharmaceutical industry. A PXR transactivation assay is used to assess the induction potential of CYP3A4, and a cytotoxicity assay of HepG2 cells is used to monitor the assay interference due to cytotoxicity.\nCell culture medium used is DMEM. Lipofectamine 2000, PBS, trypsin-EDTA (0.25%), and penicillin-streptomycin were purchased from GIBCO/Invitrogen (Carlsbad, Calif.). […]\nCells in each flask are washed with PBS and 4 mL of Trypsin-EDTA (0.25%) is added and incubated for one minute at room temperature. […] Cells are then counted and diluted in media to 3.0×10^5 cells/mL. […] After fifteen minutes, plates are read on a Viewlux (Perkin-Elmer) plate reader. […]"}},
  "note": "“Also recorded” adds a separate entry of the source.",
  "data": [
    {"smiles": "NC(=O)[C@@H](CCC(F)(F)F)N(Cc1ccc(-c2ncon2)cc1F)S(=O)(=O)c1ccc(Cl)cc1", "note": "[(2R)-2-[[(4-chlorophenyl)sulfonyl][[2-fluoro-4-(1,2,4-oxadiazol-3-yl)phenyl]methyl]amino]-5,5,5-trifluoropentanamide]", "values": [
      {"measurement": "histological evaluation of duodenal tissue", "setting": "proximal duodenum", "result": "⅓ rats dosed with 100 mg/kg/day had mild lesions; also recorded: slight goblet cell metaplasia"},
      {"measurement": "brain γ-secretase site occupancy", "setting": "[1]", "result": "gradually returned to baseline values"},
      {"measurement": "induction as % of the induction response caused by rifampicin", "setting": "CYP3A4 mRNA", "result": 22, "unit": "%"},
      {"measurement": "Terminal Brain Abeta 40 5 hr", "setting": "brain Aβ40; Study No. 1, 3 mg/kg/day", "result": 39, "unit": "% Veh"},
      {"measurement": "Terminal Brain Abeta 40 12 hr", "setting": "brain Aβ40; Study No. 1, 3 mg/kg/day", "result": 35, "unit": "% Veh"},
      {"measurement": "Terminal Brain Abeta 40 24 hr", "setting": "brain Aβ40; Study No. 1, 3 mg/kg/day", "result": 92, "unit": "% Veh"},
      {"measurement": "Terminal Brain Abeta 40 5 hr", "setting": "brain Aβ40; Study No. 1, 10 mg/kg/day", "result": 12, "unit": "% Veh"},
      {"measurement": "Terminal Brain Abeta 40 12 hr", "setting": "brain Aβ40; Study No. 1, 10 mg/kg/day", "result": 9, "unit": "% Veh"},
      {"measurement": "Terminal Brain Abeta 40 24 hr", "setting": "brain Aβ40; Study No. 1, 10 mg/kg/day", "result": 28, "unit": "% Veh"},
      {"measurement": "Terminal Brain Abeta 40 5 hr", "setting": "brain Aβ40; Study No. 1, 30 mg/kg/day", "result": 8, "unit": "% Veh"},
      {"measurement": "Terminal Brain Abeta 40 12 hr", "setting": "brain Aβ40; Study No. 1, 30 mg/kg/day", "result": 9, "unit": "% Veh"},
      {"measurement": "Terminal Brain Abeta 40 24 hr", "setting": "brain Aβ40; Study No. 1, 30 mg/kg/day", "result": 13, "unit": "% Veh"},
      {"measurement": "Terminal Brain Abeta 40 5 hr", "setting": "brain Aβ40; Study No. 2, 3 mg/kg/day", "result": 16, "unit": "% Veh"},
      {"measurement": "Terminal Brain Abeta 40 12 hr", "setting": "brain Aβ40; Study No. 2, 3 mg/kg/day", "result": 34, "unit": "% Veh"},
      {"measurement": "Terminal Brain Abeta 40 24 hr", "setting": "brain Aβ40; Study No. 2, 3 mg/kg/day", "result": 94, "unit": "% Veh"},
      {"measurement": "Terminal Brain Abeta 40 5 hr", "setting": "brain Aβ40; Study No. 2, 10 mg/kg/day", "result": 6, "unit": "% Veh"},
      {"measurement": "Terminal Brain Abeta 40 12 hr", "setting": "brain Aβ40; Study No. 2, 10 mg/kg/day", "result": 4, "unit": "% Veh"},
      {"measurement": "Terminal Brain Abeta 40 24 hr", "setting": "brain Aβ40; Study No. 2, 10 mg/kg/day", "result": 23, "unit": "% Veh"},
      {"measurement": "Terminal Brain Abeta 40 5 hr", "setting": "brain Aβ40; Study No. 2, 30 mg/kg/day", "result": 6, "unit": "% Veh"},
      {"measurement": "Terminal Brain Abeta 40 12 hr", "setting": "brain Aβ40; Study No. 2, 30 mg/kg/day", "result": 4, "unit": "% Veh"},
      {"measurement": "Terminal Brain Abeta 40 24 hr", "setting": "brain Aβ40; Study No. 2, 30 mg/kg/day", "result": 15, "unit": "% Veh"},
      {"measurement": "Terminal Brain Abeta 40 5 hr", "setting": "brain Aβ40; Study No. 2, 100 mg/kg/day", "result": 3, "unit": "% Veh"},
      {"measurement": "Terminal Brain Abeta 40 12 hr", "setting": "brain Aβ40; Study No. 2, 100 mg/kg/day", "result": 3, "unit": "% Veh"},
      {"measurement": "Terminal Brain Abeta 40 24 hr", "setting": "brain Aβ40; Study No. 2, 100 mg/kg/day", "result": 7, "unit": "% Veh"},
      {"measurement": "Day 7 5 hr Brain Aβ40", "setting": "brain Aβ40; Study No. 3, 30 mg/kg/day", "result": 13, "unit": "% Veh"},
      {"measurement": "Day 7 5 hr Brain Aβ40", "setting": "brain Aβ40; Study No. 3, 300 mg/kg/day", "result": 13, "unit": "% Veh"},
      {"measurement": "compound exposures after 3 doses relative to exposures after the initial dose", "setting": "[2]", "result": "≤ 2", "unit": "fold"},
      {"measurement": "Notch/APP selectivity", "setting": "mouse Notch1-ΔE", "result": 193, "unit": "X"},
      {"measurement": "EC20A (20% of the Rifampicin response at 10 μM)", "setting": "[3]", "result": 6.9, "unit": "µM"},
      {"measurement": "EC60A (60% of the Rifampicin response at 10 μM)", "setting": "[3]", "result": "greater than 16.7 μM"}
    ]}
  ]
}
